Assay results taken from publication PMC7948456, “Kinetics of cytochrome P450 3A4 inhibition by heterocyclic drugs defines a general sequential multistep binding process” (The Journal of Biological Chemistry, 2020).

Key:
[1] = molecular target: T1, P450 3A4 (Homo sapiens, UniProt P08684, form not given); assay: in vitro; details: P450 3A4 reconstituted with cholate/phospholipid mixture, probe testosterone 6β-hydroxylation, 25 μM
[2] = molecular target: T2, P450 3A4 (Homo sapiens, UniProt P08684); details: P450 enzyme system + NADPH, UPLC-MS
[3] = molecular target: T2, P450 3A4; details: equimolar inhibitor (50 nM), 160 μM 7-OBz quinoline added, 23 °C
[4] = molecular target: T2, P450 3A4; details: inhibitor 0.02 μM
Description: Assays for the kinetics of inhibition were done using an OLIS RSM-1000 stopped-flow instrument (On-Line Instrument Systems) in the fluorescence mode (150 W xenon lamp), with the excitation monochromator set at 410 nm and using a >515 nm Oriel long-pass filter (Newport) with the sample photomultiplier tube. The slit widths were 6.32 mm, and the sample and reference voltages of the photomultiplier tubes were 700 and 350 V, respectively. Reactions were done at 23 °C for 180 s.
One syringe contained the P450 3A4 system (100 nM P450 3A4, 200 nM POR, and 100 nM cytochrome b5) along with the other components of a “5×” mixture (potassium Hepes (pH 7.4), reduced glutathione, sodium cholate, and phospholipid mixture) combined with the 5× buffer mixture (Hepes, MgCl2, and reduced glutathione) ([42]), plus NADPH and the inhibitor compound. Fluorescence data were collected for 3 min (at 23 °C) and moved to Excel, Prism, and KinTek Explorer programs for analysis.

[5] = molecular target: T2, P450 3A4; assay: Inhibitor-binding kinetics (stopped-flow absorbance, SVD analysis); details: P450 3A4 2 μM
Excerpt: Equal volumes of buffered solutions of P450 3A4 and ligand were mixed, with a nominal dead time of 2 ms. Data were collected in the Show Pre-trigger Mode, with a short amount of data from the previous run (completed reaction) shown prior to mixing. […] From the accumulated spectra from each individual experiment (5–10 shots per concentration), generally the A420 data were subtracted from the A390 data points or A390 data were subtracted from the A425 data points, and the difference (ΔA390 − A420 or ΔA425 − A390 versus time) traces were averaged using the OLIS GlobalWorks software and fit to first-order fits (or used in SVD analysis; Figs. 9 and S7–S10).

[6] = molecular target: T1, P450 3A4; assay: in vitro; details: P450 3A4 reconstituted with cholate/phospholipid mixture, probe 7-OBz quinoline (7-benzoyl quinoline) O-debenzylation, 20 μM
Description: For catalytic assays, P450 3A4 was reconstituted with a cholate/phospholipid mixture as described previously ([42], [43]). In general, reactions were initiated either with NADPH (1 mM) or an NADPH-generating system ([76]).
Water was added, and 7-OBz quinoline (in ethanol) was aliquoted at 0.5% (v/v) to a final concentration of 20 μM. Inhibitors (in dimethyl sulfoxide) were added (final concentration 0.5% dimethyl sulfoxide, v/v) for their desired final concentrations (0–10 μM), bringing the total organic solvent composition of the reaction to 1% (v/v). Preincubations proceeded at 37 °C for 5 min and were initiated with the addition of the NADPH-generating system ([76]). Reactions (8 min) were quenched with 100 μl of cold CH3CN on ice and centrifuged at 2000g for 10 min to pellet precipitated protein. […] The product 7-OH quinoline was detected using a Waters Acuity fluorescence detector with excitation and emission wavelengths set at 420 and 503 nm, respectively.

[7] = inhibitor 15 μM, three-species 1→2→3 model

T2 sequence (P08684 13-503): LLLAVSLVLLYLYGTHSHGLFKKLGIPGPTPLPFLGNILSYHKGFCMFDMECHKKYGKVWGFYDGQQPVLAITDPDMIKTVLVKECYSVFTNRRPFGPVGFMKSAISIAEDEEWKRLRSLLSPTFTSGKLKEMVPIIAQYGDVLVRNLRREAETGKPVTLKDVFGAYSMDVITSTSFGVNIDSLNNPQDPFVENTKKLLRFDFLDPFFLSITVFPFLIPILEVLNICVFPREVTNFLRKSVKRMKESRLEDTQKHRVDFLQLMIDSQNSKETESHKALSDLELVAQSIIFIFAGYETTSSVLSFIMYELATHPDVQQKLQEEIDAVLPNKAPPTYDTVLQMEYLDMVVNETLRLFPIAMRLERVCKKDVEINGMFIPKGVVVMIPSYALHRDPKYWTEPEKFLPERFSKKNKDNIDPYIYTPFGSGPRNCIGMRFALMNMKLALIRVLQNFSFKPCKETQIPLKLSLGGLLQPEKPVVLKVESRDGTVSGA
T2 sequence (P00388 2-678 partner): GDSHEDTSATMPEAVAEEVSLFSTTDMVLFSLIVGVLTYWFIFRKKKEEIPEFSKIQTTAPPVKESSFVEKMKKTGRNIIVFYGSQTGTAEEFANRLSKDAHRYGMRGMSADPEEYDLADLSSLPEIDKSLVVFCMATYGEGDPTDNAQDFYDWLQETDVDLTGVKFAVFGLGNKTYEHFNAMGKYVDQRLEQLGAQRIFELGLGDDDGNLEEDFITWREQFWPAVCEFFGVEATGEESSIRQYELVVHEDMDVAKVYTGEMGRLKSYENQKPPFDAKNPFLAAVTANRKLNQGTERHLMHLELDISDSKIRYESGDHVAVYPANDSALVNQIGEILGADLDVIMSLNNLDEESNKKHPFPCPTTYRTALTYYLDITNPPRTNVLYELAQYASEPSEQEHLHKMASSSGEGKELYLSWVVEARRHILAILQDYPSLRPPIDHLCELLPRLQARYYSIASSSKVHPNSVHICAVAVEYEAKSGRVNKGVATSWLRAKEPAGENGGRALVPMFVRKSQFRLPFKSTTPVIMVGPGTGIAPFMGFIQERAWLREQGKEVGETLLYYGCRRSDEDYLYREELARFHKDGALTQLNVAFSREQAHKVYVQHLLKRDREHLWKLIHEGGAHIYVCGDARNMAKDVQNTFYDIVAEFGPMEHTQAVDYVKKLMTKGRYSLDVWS
T2 sequence (P00167 2-134 partner): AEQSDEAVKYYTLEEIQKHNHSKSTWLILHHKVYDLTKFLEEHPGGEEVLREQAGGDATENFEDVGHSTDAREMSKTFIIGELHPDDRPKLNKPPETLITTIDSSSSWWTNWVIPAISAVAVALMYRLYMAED
T1 sequence (P08684 13-503): as the sequence (P08684 13-503) above
T1 sequence (P00388 2-678 partner): as the sequence (P00388 2-678 partner) above
T1 sequence (P00167 2-134 partner): as the sequence (P00167 2-134 partner) above

Structure (SMILES) | IC50 at 15 min [1] | substrate for P450 3A4 (product formation) [2] | lag phase in recovery of catalytic activity [3] | Onset of 7-OBz quinoline O-debenzylation inhibition, Rate (k1) [4] | Spectral binding (SVD) k1 [5, 7] | Spectral binding (SVD) k2 [5, 7] | kobs, initial rate of binding (ΔA390 − A425) ([5]; ligand 4 μM final) | IC50 at 8 min [6]
Clc1ccccc1C(c1ccccc1)(c1ccccc1)n1ccnc1 [Clotrimazole] | 110 nM | is a substrate as well as an inhibitor of P450 3A4 | ~45 s | 0.39 ± 0.03 s⁻¹ | 0.092 ± 0.01 s | 0.016 ± 0.005 s⁻¹ | 235 s⁻¹ | 110 nM
CCC(C)n1ncn(-c2ccc(N3CCN(c4ccc(OCC5COC(Cn6cncn6)(c6ccc(Cl)cc6Cl)O5)cc4)CC3)cc2)c1=O (stereo not shown) [Itraconazole] | 1490 nM |  |  |  |  |  |  | 2020 nM
